Test results: US7786083B2, “Metastin derivatives and use thereof” (Takeda Pharmaceutical Company Limited, priority 2006, dated 2010)
*1 amine or outer side, *2 acyl side, *3 side chain or, on linkers, in order; H or OH if unused. Where a SMILES comes first, the peptide text is derived from it. [ ]: non-standard residue; d: D form. Hexanoyl(5S-NH,4S-OH,6-Ph) = O=C(CC[C@H](O)[C@H](Cc1ccccc1)N[*:1])[*:2]; Glyψ(E-CHCH)Leu = CC(C)C[C@H](/C=C/CN[*:1])C(=O)[*:2]; X2 = O=C(/C=C/[C@@H](O)[C@H](Cc1ccccc1)N[*:1])[*:2]; X5 = O=C(/C=C/[C@H](O)[C@H](Cc1ccccc1)N[*:1])[*:2]; X3 = O=C(CC[C@@H](O)[C@H](Cc1ccccc1)N[*:1])[*:2]; X7 = O=C(C/C=C/[C@H](Cc1ccccc1)N[*:1])[*:2]; Phe(3-Me) = Cc1cccc(C[C@H](N)C(=O)O)c1; Phe(4-Me) = Cc1ccc(C[C@H](N)C(=O)O)cc1; Phe(2-Me) = Cc1ccccc1C[C@H](N)C(=O)O; Arg(Me) = CNC(=N)NCCC[C@H](N)C(=O)O; Dap(CONH2) = NC(=O)NC[C@H](N)C(=O)O; Ala(cPr) = N[C@@H](CC1CC1)C(=O)O; Hyp = O=C(O)[C@@H]1C[C@@H](O)CN1; αMeF = C[C@](N)(Cc1ccccc1)C(=O)O; Cha = N[C@@H](CC1CCCCC1)C(=O)O

Tested on: metastin receptors
Experiment: Measurement of agonist activity by assaying changes in intracellular calcium ion level (FLIPR, Fluo-4 NW)
Assay type: cell-based, human
Conditions: specific activity of the EC50 of a test compound based on the EC50 of Metastin (45-54), metastin receptor expression CHO cells
Protocol: 1) Preparation of Human Metastin and Rat Metastin Stable Expression Cell Lines
Human metastin and rat metastin stable expression cell lines were obtained by transfecting the expression plasmid for animal cells into CHO/dhfr^− cells using CellPhect Transfection Kit (manufactured by GE Healthcare). First, 240 μL of Buffer A (attached to CellPhect Transfection Kit) was added to 9.6 μg of plasmid DNA dissolved in 240 μL of distilled water followed by stirring. After the mixture was settled for 10 minutes, 480 μL of Buffer B (attached to CellPhect Transfection Kit) was added to the mixture, which was vigorously stirred to form liposomes containing the DNA. Then, 4×10^5 CHO/dhfr^− cells (obtained from ATCC) were inoculated on a 60 mm Petri dish. After culturing the cells in Ham's F-12 medium (manufactured by Nissui Seiyaku Co., Ltd.) supplemented with 10% fetal bovine serum (manufactured by BIO […], Inc.) at 37° C. for 2 days in 5% carbon dioxide gas, […] of the liposomes were dropwise added to the cells on the Petri dish. After culturing the cells in a CO2 incubator (5% CO2, 37° C.) for 6 hours, the cells were washed twice with serum-free Ham's F-12 medium and 3 mL of 15% glycerol was added to the cells on the Petri dish followed by treatment for 2 minutes. The cells were again washed twice with serum-free Ham's F-12 medium followed by incubation in Ham's F-12 medium supplemented with 10% fetal bovine serum in a CO2 incubator (5% CO2, 37° C.) for 15 hours. The cells were dispersed by trypsin treatment to recover from the Petri dish. The recovered cells were inoculated on a 6-well plate in 1.25×10^4 cells each/well and incubation was initiated in a CO2 incubator (5% CO2, 37° C.) in Dulbecco's modified Eagle medium (DMEM, manufactured by Nissui Seiyaku) containing 10% dialyzed fetal bovine serum (manufactured by JRH BIOSCIENCES, Inc.). The plasmid-transfected CHO transformants grew in the medium but the non-transfected cells gradually died, accordingly the medium was exchanged on Days 1 and 2 after the initiation of incubation to remove the dead cells. Approximately 20 colonies of the CHO transformants that kept growing on Days 8 to 10 after the incubation were isolated. From the cells in these colonies, cells showing high reactivity with the ligand peptide metastin (hereinafter merely referred to as h175 KB19 and h175 KB29 strains) were selected to provide for the following experiment.
Human metastin expression CHO cell line (h175 KB19 strain is described in a separate section) and rat metastin expression CHO cell line (h175 KB29 strain is described in a separate section) were seeded in a 96-well plate (type 3904, manufactured by Corning) at 3×10^4 cells/well, followed by incubation in a CO2 incubator (5% CO2, 37° C.) for 24 hours. For the medium, MEMα medium (nucleic acid-free, manufactured by Nikken Bio Medical Laboratory) supplemented with dialyzed 10% fetal bovine serum (manufactured by Thermo, MultiSer) was used.
3) Loading with Fluo-4 NW in Cells
As an assay buffer, 1× Hanks' balanced salt solution (HBSS, manufactured by GIBCO) supplemented with 0.1% BSA, 20 mM HEPES (pH 7.4, manufactured by GIBCO) and 1 mM Probenecid (manufactured by Molecular Probes) was prepared. The medium in the wells of the cell-seeded plate was removed and 100 μL each of the assay buffer (kept warm at 37° C.) was added to each well. After 10 mL of the assay buffer (the volume for assaying two plates) was charged in one Fluo-4NW dye mix (Component A, Fluo-4 NW calcium assay kit (starter pack), manufactured by Molecular Probes) bottle, the mixture was gently stirred to prepare the Fluo-4 NW loading solution. This loading solution was charged in each well by 50 μl each and reacted in a CO2 incubator (5% CO2, 37° C.) for 30 minutes for loading with Fluo-4 NW into the cells. Subsequently, the cells were settled at room temperature (25° C.) for 15 minutes and then used for assay.
4) Measurement of Agonist Activity […]

SMILES | Specific Activity
CNC(=N)NCCC[C@H](NC(=O)[C@H](CC(C)C)NC(=O)CNC(=O)[C@H](Cc1ccccc1)NC(=O)[C@@H](NC(=O)[C@H](CC(N)=O)NC(=O)[C@H](CCC(=O)O)NC(=O)[C@@H](Cc1ccc(O)cc1)NC(C)=O)[C@@H](C)O)C(=O)N[C@@H](Cc1c[nH]c2ccccc12)C(N)=O [Compound No. 852, des(1)-Ac-[D-Tyr2,Glu3,Thr5,Arg(Me)9,Trp10]MS10] (Ac-[dY]ENTFGL[Arg(Me)]W-NH2) | 0.5
CNC(=N)NCCC[C@H](NC(=O)[C@H](CC(C)C)NC(=O)CNC(=O)[C@H](CC1CCCCC1)NC(=O)[C@@H](NC(=O)[C@H](CC(N)=O)NC(=O)[C@H](CCC(=O)O)NC(=O)[C@@H](Cc1ccc(O)cc1)NC(C)=O)[C@@H](C)O)C(=O)N[C@@H](Cc1c[nH]c2ccccc12)C(N)=O [Compound No. 853, des(1)-Ac-[D-Tyr2,Glu3,Thr5,Cha6,Arg(Me)9,Trp10]MS10] (Ac-[dY]ENT[Cha]GL[Arg(Me)]W-NH2) | 0.6
CNC(=N)NCCC[C@H](NC(=O)[C@H](CC(C)C)NC(=O)CNC(=O)[C@H](CC1CC1)NC(=O)[C@@H](NC(=O)[C@H](CC(N)=O)NC(=O)[C@@H]1C[C@@H](O)CN1C(=O)[C@@H](Cc1ccc(O)cc1)NC(C)=O)[C@@H](C)O)C(=O)N[C@@H](Cc1c[nH]c2ccccc12)C(N)=O [Compound No. 855, des(1)-Ac-[D-Tyr2,Hyp3,Thr5,Ala(cPr)6,Arg(Me)9,Trp10]MS10] (Ac-[dY][Hyp]NT[Ala(cPr)]GL[Arg(Me)]W-NH2) | 1.9
CNC(=N)NCCC[C@H](NC(=O)[C@H](CC(C)C)NC(=O)CC[C@H](O)[C@H](Cc1ccccc1)NC(=O)[C@@H](NC(=O)[C@H](CC(N)=O)NC(=O)[C@@H]1C[C@@H](O)CN1C(=O)[C@@H](Cc1ccc(O)cc1)NC(C)=O)[C@@H](C)O)C(=O)N[C@@H](Cc1c[nH]c2ccccc12)C(N)=O [Compound No. 857, des(1)-Ac-[D-Tyr2,Hyp3,Thr5,Phe6Ψ((S)CHOH—CH2)Gly7,Arg(Me)9,Trp10]MS10] (Ac-[dY][Hyp]NT[Hexanoyl(5S-NH,4S-OH,6-Ph)]L[Arg(Me)]W-NH2) | 1.2
CNC(=N)NCCC[C@H](NC(=O)[C@H](CC(C)C)NC(=O)/C=C/[C@H](O)[C@H](Cc1ccccc1)NC(=O)[C@@H](NC(=O)[C@H](CC(N)=O)NC(=O)[C@@H]1C[C@@H](O)CN1C(=O)[C@@H](Cc1ccc(O)cc1)NC(C)=O)[C@@H](C)O)C(=O)N[C@@H](Cc1c[nH]c2ccccc12)C(N)=O [Compound No. 858, des(1)-Ac-[D-Tyr2,Hyp3,Thr5,Phe6Ψ((S)CHOH—(E)CH=)Gly7,Arg(Me)9,Trp10]MS10] (Ac-[dY][Hyp]NT[X5]L[Arg(Me)]W-NH2) | 1.7
CNC(=N)NCCC[C@H](NC(=O)[C@H](CC(C)C)NC(=O)C/C=C/[C@H](Cc1ccccc1)NC(=O)[C@@H](NC(=O)[C@H](CC(N)=O)NC(=O)[C@@H]1C[C@@H](O)CN1C(=O)[C@@H](Cc1ccc(O)cc1)NC(C)=O)[C@@H](C)O)C(=O)N[C@@H](Cc1c[nH]c2ccccc12)C(N)=O [Compound No. 859, des(1)-Ac-[D-Tyr2,Hyp3,Thr5,Phe6Ψ((E)CH═CH)Gly7,Arg(Me)9,Trp10]MS10] (Ac-[dY][Hyp]NT[X7]L[Arg(Me)]W-NH2) | 0.7
CNC(=N)NCCC[C@H](NC(=O)[C@H](CC(C)C)NC(=O)/C=C/[C@@H](O)[C@H](Cc1ccccc1)NC(=O)[C@@H](NC(=O)[C@H](CC(N)=O)NC(=O)[C@@H]1C[C@@H](O)CN1C(=O)[C@@H](Cc1ccc(O)cc1)NC(C)=O)[C@@H](C)O)C(=O)N[C@@H](Cc1c[nH]c2ccccc12)C(N)=O [Compound No. 866, des(1)-Ac-[D-Tyr2,Hyp3,Thr5,Phe6Ψ((R)CHOH—(E)CH=)Gly7,Arg(Me)9,Trp10]MS10] (Ac-[dY][Hyp]NT[X2]L[Arg(Me)]W-NH2) | 1.4
CNC(=N)NCCC[C@H](NC(=O)[C@H](CC(C)C)NC(=O)CC[C@@H](O)[C@H](Cc1ccccc1)NC(=O)[C@@H](NC(=O)[C@H](CC(N)=O)NC(=O)[C@@H]1C[C@@H](O)CN1C(=O)[C@@H](Cc1ccc(O)cc1)NC(C)=O)[C@@H](C)O)C(=O)N[C@@H](Cc1c[nH]c2ccccc12)C(N)=O [Compound No. 867, des(1)-Ac-[D-Tyr2,Hyp3,Thr5,Phe6Ψ((R)CHOH—CH2)Gly7,Arg(Me)9,Trp10]MS10] (Ac-[dY][Hyp]NT[X3]L[Arg(Me)]W-NH2) | 0.8
CNC(=N)NCCC[C@H](NC(=O)[C@H](CC(C)C)NC(=O)CNC(=O)[C@](C)(Cc1ccccc1)NC(=O)[C@@H](NC(=O)[C@H](CC(N)=O)NC(=O)[C@@H]1C[C@@H](O)CN1C(=O)[C@@H](Cc1ccc(O)cc1)NC(C)=O)[C@@H](C)O)C(=O)N[C@@H](Cc1c[nH]c2ccccc12)C(N)=O [Compound No. 869, des(1)-Ac-[D-Tyr2,Hyp3,Thr5,αMePhe6,Arg(Me)9,Trp10]MS10] (Ac-[dY][Hyp]NT[αMeF]GL[Arg(Me)]W-NH2) | 3.8
CNC(=N)NCCC[C@H](NC(=O)[C@H](CC(C)C)NC(=O)CNC(=O)[C@H](Cc1ccccc1C)NC(=O)[C@@H](NC(=O)[C@H](CC(N)=O)NC(=O)[C@@H]1C[C@@H](O)CN1C(=O)[C@@H](Cc1ccc(O)cc1)NC(C)=O)[C@@H](C)O)C(=O)N[C@@H](Cc1c[nH]c2ccccc12)C(N)=O [Compound No. 871, des(1)-Ac-[D-Tyr2,Hyp3,Thr5,Phe(2Me)6,Arg(Me)9,Trp10]MS10] (Ac-[dY][Hyp]NT[Phe(2-Me)]GL[Arg(Me)]W-NH2) | 0.7
CNC(=N)NCCC[C@H](NC(=O)[C@H](CC(C)C)NC(=O)CNC(=O)[C@H](Cc1cccc(C)c1)NC(=O)[C@@H](NC(=O)[C@H](CC(N)=O)NC(=O)[C@@H]1C[C@@H](O)CN1C(=O)[C@@H](Cc1ccc(O)cc1)NC(C)=O)[C@@H](C)O)C(=O)N[C@@H](Cc1c[nH]c2ccccc12)C(N)=O [Compound No. 873, des(1)-Ac-[D-Tyr2,Hyp3,Thr5,Phe(3Me)6,Arg(Me)9,Trp10]MS10] (Ac-[dY][Hyp]NT[Phe(3-Me)]GL[Arg(Me)]W-NH2) | 0.8
CNC(=N)NCCC[C@H](NC(=O)[C@H](CC(C)C)NC(=O)CNC(=O)[C@H](Cc1ccc(C)cc1)NC(=O)[C@@H](NC(=O)[C@H](CC(N)=O)NC(=O)[C@@H]1C[C@@H](O)CN1C(=O)[C@@H](Cc1ccc(O)cc1)NC(C)=O)[C@@H](C)O)C(=O)N[C@@H](Cc1c[nH]c2ccccc12)C(N)=O [Compound No. 875, des(1)-Ac-[D-Tyr2,Hyp3,Thr5,Phe(4Me)6,Arg(Me)9,Trp10]MS10] (Ac-[dY][Hyp]NT[Phe(4-Me)]GL[Arg(Me)]W-NH2) | 0.9
CNC(=N)NCCC[C@H](NC(=O)[C@H](CC(C)C)NC(=O)CNC(=O)[C@H](Cc1ccccc1)NC(=O)[C@@H](NC(=O)[C@H](CNC(N)=O)NC(=O)[C@@H]1C[C@@H](O)CN1C(=O)[C@@H](Cc1ccc(O)cc1)NC(C)=O)[C@@H](C)O)C(=O)N[C@@H](Cc1c[nH]c2ccccc12)C(N)=O [Compound No. 885, des(1)-Ac-[D-Tyr2,Hyp3,Alb4,Thr5,Arg(Me)9,Trp10]MS10] (Ac-[dY][Hyp][Dap(CONH2)]TFGL[Arg(Me)]W-NH2) | 0.5
CNC(=N)NCCC[C@H](NC(=O)[C@@H](/C=C/CNC(=O)[C@H](Cc1ccccc1)NC(=O)[C@@H](NC(=O)[C@H](CC(N)=O)NC(=O)[C@@H]1C[C@@H](O)CN1C(=O)[C@@H](Cc1ccc(O)cc1)NC(C)=O)[C@@H](C)O)CC(C)C)C(=O)N[C@@H](Cc1c[nH]c2ccccc12)C(N)=O [Compound No. 892, des(1)-Ac-[D-Tyr2,Hyp3,Thr5,Gly7Ψ((E)CH═CH)Leu8,Arg[(Me)9,Trp10]MS10] (Ac-[dY][Hyp]NTF[Glyψ(E-CHCH)Leu][Arg(Me)]W-NH2) | 0.6
